Key:
DU145 cells [1] = test: Western blotting of CD44, DU145 cells; format: cell-based; details: doses with minimum effect on viability
Procedure: (§1) 5.1.5 Western blotting was carried out as described above under 1.1.5. The membrane was incubated with primary antibodies directed against CD133 (Miltenyi Biotec, Auburn, Calif.), Bcl-2, PARP, cleaved caspase 3, 7, 9 (Cell Signaling, Technology Inc, Beverly, Mass.), CD44 and β-actin (Santa Cruz Biotechnology, Santa Cruz, Calif.). After washing with TBS-T, the membrane was incubated with secondary antibody against either mouse or rabbit IgG and the signals were visualized using ECL plus western blotting system (Amersham, Piscataway, N.J.).

DU145 prostaspheres = test: Treatment of pre-formed CSC-enriched DU145 prostaspheres; format: cell-based; details: 48 hrs
Procedure: (A) CSC enriched prostaspheres were formed by maintaining DU145 cells in non-adherent culture supplemented with serum replacement medium for 14 days. The prostaspheres were then treated with either vehicle, γ-T3 (10, 20 μg/ml) or Docetaxel (Doc, 40 ng/ml) for 48 hrs. Spheroids were counted under microscope before and after treatment. Results were presented as mean % change in spheroid number to control±s.d. Note that spheroids were highly sensitive to γ-T3 treatment but resistant to high dose of Docetaxel. (B) Images of prostaspheres after 48 hrs treatment with vehicle, 40 ng/ml of Docetaxel and 10 μg/ml of γ-T3.
(§2) 5.1.7 Spheroid formation assay—Spheroid formation assay was performed with a protocol modified from previous study (Folkins C, p3560). Briefly, cells were first trypsinized, washed with 1× PBS and resuspended in DMEM F12 medium. Two hundred cells were added into each well of a 24-well-plate pre-coated with polyHEMA (Sigma, St. Louis, Mo.). Cells will be grown in DMEM/F12 mem (Invitrogen, Carlsbad, Calif.) supplemented with 4 μg/mL insulin (Sigma, St. Louis, Mo.), B27 (Invitrogen, Carlsbad, Calif.), 20 ng/mL EGF (Sigma, St. Louis, Mo.), and 20 ng/mL basic FGF (Invitrogen, Carlsbad, Calif.). Fresh medium with the above supplements was added every day. γ-T3 was added at indicated time points and the number of spheroids was counted at day 14 of the assay or at the end of the treatment. Each experiment was repeated in triplicates and each data point represented the mean and standard derivation.

[2] = Single acute toxicity test (MTD); format: in vivo, C57BL/6 black mice; details: single dose i.p., 30-day observation
Procedure: 4.1.5 Single Acute Toxicity Test—The maximum tolerated dose (MTD) was determined by increasing doses on different groups of mice until the highest dose without any mortality is found. Briefly, ninety C57BU6 black mice (ten for each group) received single dose i.p injection containing 1, 2, 4, 8, 12, 16, 20, 30 and 40 mg of γ-T3 in 100 μl injection volume.

DU145 cells [3] = test: Spheroid formation assay, DU145 cells; format: cell-based
Procedure: as §2

PC-3 cells [4] = test: Flow cytometry and western blotting, PC-3 cells; format: cell-based, human
Procedure: 1.1.3 Flow cytometry—Cell cycle distribution was examined using flow cytometry. Briefly, cells were harvested by trypsinization, fixed in 70% ethanol at 4° C. overnight, and then resuspended in PBS. After incubation at 4° C. for overnight, 2×10^6 cells were incubated with in 20 μg/ml propidium iodide (PI) and 2 mg RNaseA for 15 minutes at 37° C. Cells were then examined by BD SLRII cytometer and the results were analyzed using ModFit software (Becton Dickinson, Mountain View, Calif.). Data were expressed as the percentage of cell cycle distribution in the entire population.
1.1.5 Western blotting—Detailed protocols have been described previously and are known in the art. Briefly, cell lysates were prepared by suspending cell pellets in lysis buffer [50 mmol/l Tris-HCl (pH 8.0), 150 mmol/l NaCl, 1% NP40, 0.5% deoxycholate, 0.1% SDS, 1 mg/ml aprotinin, 1 μg/ml leupeptin and 1 mmol/l phenylmethylsulfonyl fluoride]. For nuclear protein extraction, NucBuster™ protein extraction kit was used. Protein concentration was measured using the DC Protein Assay kit (Bio-Rad, Hercules, Calif.). Equal amount of protein (30 μg) was loaded onto a 10% SDS polyacrylamide gel for electrophoresis and then transferred onto a polyvinylidene difluoride membrane (Amersham, Piscataway, N.J.). The membrane was then incubated with primary antibodies for 1 hr at room temperature against E-cadherin (BD Biosciences, Bedford, Mass.), α-catenin, β-catenin, γ-catenin, Id-1, Id-3, EGFR, phosphor-c-jun, phosphor-ATF2, cleaved PARP, vimentin, α-smooth muscle actin, twist (Santa Cruz Biotechnology, Calif.), phosphor-IkB-alpha (Ser32/36), phosphor-IKK alpha (Seri 80)/IKK beta (Ser181), phosphor-SAPK/JNK (Thr183/Tyr185) G9, SAPK/JNK, NF-kB p65 (5A5) (Cell Signaling Technology Inc, Beverly, Mass.), Snail (Abcam). After incubation with appropriate secondary antibodies, signals were visualized by ECL western blotting system (Amersham, Piscataway, N.J.). Expression of β-actin and histone H1 were assessed as an internal loading control for total cell lysate and nuclear protein lysate respectively.
2.1.4 Flow cytometry was carried out as described above under item 1.1.3. Matrigel-invasion assay was carried out as described above under item 1.1.4. Western blotting was carried out as described above under item 1.1.5.

PC-3 cells [5] = test: Low-dose viability (MTT) and apoptotic markers, PC-3 cells; format: cell-based; details: 2.5 and 5 μg/ml
Procedure: 5.1.4 Cell viability assay—Cell viability upon γ-T3 treatment was measured by 3-(4,5-Dimethyl thiazol-2-yl)-2,5-diphenyl tetrazolium bromide (MTT) assay. Briefly, cells were seeded on 96 well-plates and treated with different concentrations of γ-T3 for the indicated time point. At the end of the treatment, MTT (Sigma, St. Louis, Mo.) was added into each well and incubated for 4 hrs at RT. DMSO was then added into each well to dissolve the formazan crystals. The plate was allowed to incubate for a further 5 min at RT and the optical density (OD) was measured at a wavelength of 570 nm on a Labsystem multiskan microplate reader (Merck Eurolab, Dietikon, Schweiz). All individual wells were set in triplicates. The percentage of cell viability was presented as OD ratio between the treated and untreated cells at indicated concentrations.
as §1

## CC(C)=CCC/C(C)=C/CC/C(C)=C/CCC1(C)CCc2cc(O)c(C)c(C)c2O1 (stereo not shown) [γ-T3, 7,8-dimethyltocotrienol]
DU145 cells [1]
  CD44 expression: suppression of CD44 expression
DU145 prostaspheres; 10 μg/ml
  decrease of spheroid number: 70%
DU145 prostaspheres; 20 μg/ml
  decrease of spheroid number: 76%
[2]
  maximum tolerated dose (MTD): 12 mg
DU145 cells [3]
  spheroid formation ability: almost completely suppressed
PC-3 cells [4]; PC-3
  E-cadherin and γ-catenin protein expression: up-regulated
  JNK phosphorylation: dosage- and time-dependent increase in JNK phosphorylation activities
  NF-κB p65 activity (nuclear translocation): suppressed constitutive NF-κB p65 activity in a dose-dependent and time-dependent manner
PC-3 cells [4]; PC-3, 24 hrs
  Snail and mesenchymal markers (vimentin, α-SMA and twist) expression: down-regulated
  activation of pro-apoptotic proteins (cleaved products): activation of procaspase 3, 7, 8, 9 as well as PARP
PC-3 cells [4]; PC-3, increasing dosages
  EGF-R expression (Id-1 and Id-3 similar): significantly suppressed to almost undetectable level
PC-3 cells [4]; γ-T3 IC50-95, 24 hrs
  sub-G1 cell population (flow cytometry): induction of sub-G1 cell population
PC-3 cells [5]
  induction of apoptosis (viability assay and apoptotic markers): failed to detect a drastic induction of apoptosis

Source: patent publication US20110195910A1, “USE OF TOCOTRIENOL COMPOSITION FOR THE PREVENTION OF CANCER” (DAVOS LIFE SCIENCE PTE. LTD., priority 2008, published 2011)
